# Test results as given in patent publication US20190054022A1, “FORMULATIONS OF SITE-SPECIFIC, MICROPARTICULATE COMPOSITIONS AND THEIR USE TO IMPROVE OUTCOME AFTER ANEURSYMAL SUBARACHNOID HEMORRHAGE” (Edge Therapeutics, Inc., priority 2016, published 2019).
# Where two headings read alike, the source gives them in different places.
# Experiments:
# [1] = tested on: double hemorrhage dog model of SAH; experiment: Mongrel dog SAH study: behavior, blood pressure, microthrombi, neuronal injury; assay type: in vivo, mongrel dogs; conditions: placebo microparticle plus oral nimodipine
# Protocol: Blood was injected into the cisterna magna using the same procedure as on day 1 except that microparticles were not injected. Angiography was repeated on days 8 and 15. The diameter of the basilar artery was measured at 5 equally spaced points by two blinded observers and the means averaged. Angiographic vasospasm was assessed by comparing the diameters of basilar arteries from Days 1, 8 and 15 and the time course and severity of angiographic vasospasm was determined. Dogs were weighed weekly and examined daily for 14 days, including behavior examination [Zhou C, Yamaguchi […], Zhang J H. Role of p53 and apoptosis in cerebral vasospasm after experimental subarachnoid hemorrhage. J Cereb Blood Flow Metab 2005; 25:572-82.]. […] Indirect blood pressure was measured in awake dogs daily for the first 14 days and weekly thereafter. Dogs were euthanized by an intravenous overdose of sodium pentobarbital. They were perfused through the heart with PBS followed by 10% neutral buffered formalin. […] Neuronal degeneration and apoptosis were scored by a pathologist blinded to the assigned group on a semi-quantitative scale as normal, minimal, mild, moderate or severe. Microthrombi present in three (3) 100×100 μm fields were counted.
# [2] = Nimodipine release in vivo: plasma concentration after subcutaneous injection; design: species or system Wistar rats; conditions: 20 mg/kg or 200 mg/kg
# Protocol: A mobile phase of water:methyl alcohol:tetrahydrofuran was used (60:20:20) at 2 mL/min with detection at 235 nm.
# Blood samples were collected from two alternating cohorts of 2 or 3 animals/cohort in the microparticle formulation-injected groups. Collection was immediately before injection and then 1, 12, and 24 hours post dose, and on days 4, 8, 11, and 15. After the last blood sample collection interval, the surviving animals were euthanized via carbon dioxide inhalation. Animals were euthanized by cervical dislocation and the carcasses were discarded.
# [3] = Mongrel dog SAH study: plasma and CSF nimodipine concentration; assay type: in vivo, mongrel dogs; conditions: oral 5.2 mg/kg daily, day 3 (highest), n=7
# [4] = tested on: double hemorrhage dog model of SAH; experiment: Mongrel dog SAH efficacy study: angiographic vasospasm (basilar artery diameter); assay type: in vivo, mongrel dogs
# Protocol: Dose translation from animal to human studies revisited. […] Dogs were euthanized on day 28 or 49. Dogs were anesthetized as described above, blood was collected and blood pressure, temperature, heart rate and oxygen saturation were monitored continuously while animals were under anesthesia. Blood gases were obtained before and after the injections. Cerebral angiography was performed through a 4F catheter inserted into the femoral artery and advanced under fluoroscopic guidance into the proximal portion of one vertebral artery using a guide wire. […] Images were captured digitally using identical exposure factors and magnification and an internal magnification standard was included in every angiogram. […] One half of the blood was injected, followed by injection of microparticles and then the remaining blood. The needle was withdrawn and the dogs were kept 30° head down for 15 minutes after which the femoral catheter was removed, the artery was ligated, and the incision was closed. For […] injection, the blood was injected into the cisterna magna and then the dog was placed prone in a stereotactic unit. […] Blood was injected into the cisterna magna using the same procedure as on day 1 except that microparticles were not injected. Angiography was repeated on days 8 and 15. The diameter of the basilar artery was measured at 5 equally spaced points by two blinded observers and the means averaged. Angiographic vasospasm was assessed by comparing the diameters of basilar arteries from Days 1, 8 and 15 and the time course and severity of angiographic vasospasm was determined. Dogs were weighed weekly and examined daily for 14 days, including behavior examination [Zhou C, Yamaguchi […], Zhang J H. Role of p53 and apoptosis in cerebral vasospasm after experimental subarachnoid hemorrhage. J Cereb Blood Flow Metab 2005; 25:572-82.]. […] Indirect blood pressure was measured in awake dogs daily for the first 14 days and weekly thereafter.
# [5] = oral, total single day dose of 360 mg; cited from earlier work
# [6] = tested on: patients with SAH secured by endovascular coiling; conditions: cited from earlier work; for patients with primary end point: placebo 27%; for patients with poor outcome (extended Glasgow Outcome Scale score <1=4): placebo 24%
# [7] = tested on: patients with SAH secured by surgical clipping; conditions: cited from earlier work
# [8] = tested on: patients with aneurysmal SAH; conditions: in vivo; cited from earlier work
# N-type calcium current = N-type calcium current (Homo sapiens, UniProt Q00975); conditions: at 300 nM to 500 nM; cited from earlier work
# Sequence of N-type calcium current (Q00975 whole entry): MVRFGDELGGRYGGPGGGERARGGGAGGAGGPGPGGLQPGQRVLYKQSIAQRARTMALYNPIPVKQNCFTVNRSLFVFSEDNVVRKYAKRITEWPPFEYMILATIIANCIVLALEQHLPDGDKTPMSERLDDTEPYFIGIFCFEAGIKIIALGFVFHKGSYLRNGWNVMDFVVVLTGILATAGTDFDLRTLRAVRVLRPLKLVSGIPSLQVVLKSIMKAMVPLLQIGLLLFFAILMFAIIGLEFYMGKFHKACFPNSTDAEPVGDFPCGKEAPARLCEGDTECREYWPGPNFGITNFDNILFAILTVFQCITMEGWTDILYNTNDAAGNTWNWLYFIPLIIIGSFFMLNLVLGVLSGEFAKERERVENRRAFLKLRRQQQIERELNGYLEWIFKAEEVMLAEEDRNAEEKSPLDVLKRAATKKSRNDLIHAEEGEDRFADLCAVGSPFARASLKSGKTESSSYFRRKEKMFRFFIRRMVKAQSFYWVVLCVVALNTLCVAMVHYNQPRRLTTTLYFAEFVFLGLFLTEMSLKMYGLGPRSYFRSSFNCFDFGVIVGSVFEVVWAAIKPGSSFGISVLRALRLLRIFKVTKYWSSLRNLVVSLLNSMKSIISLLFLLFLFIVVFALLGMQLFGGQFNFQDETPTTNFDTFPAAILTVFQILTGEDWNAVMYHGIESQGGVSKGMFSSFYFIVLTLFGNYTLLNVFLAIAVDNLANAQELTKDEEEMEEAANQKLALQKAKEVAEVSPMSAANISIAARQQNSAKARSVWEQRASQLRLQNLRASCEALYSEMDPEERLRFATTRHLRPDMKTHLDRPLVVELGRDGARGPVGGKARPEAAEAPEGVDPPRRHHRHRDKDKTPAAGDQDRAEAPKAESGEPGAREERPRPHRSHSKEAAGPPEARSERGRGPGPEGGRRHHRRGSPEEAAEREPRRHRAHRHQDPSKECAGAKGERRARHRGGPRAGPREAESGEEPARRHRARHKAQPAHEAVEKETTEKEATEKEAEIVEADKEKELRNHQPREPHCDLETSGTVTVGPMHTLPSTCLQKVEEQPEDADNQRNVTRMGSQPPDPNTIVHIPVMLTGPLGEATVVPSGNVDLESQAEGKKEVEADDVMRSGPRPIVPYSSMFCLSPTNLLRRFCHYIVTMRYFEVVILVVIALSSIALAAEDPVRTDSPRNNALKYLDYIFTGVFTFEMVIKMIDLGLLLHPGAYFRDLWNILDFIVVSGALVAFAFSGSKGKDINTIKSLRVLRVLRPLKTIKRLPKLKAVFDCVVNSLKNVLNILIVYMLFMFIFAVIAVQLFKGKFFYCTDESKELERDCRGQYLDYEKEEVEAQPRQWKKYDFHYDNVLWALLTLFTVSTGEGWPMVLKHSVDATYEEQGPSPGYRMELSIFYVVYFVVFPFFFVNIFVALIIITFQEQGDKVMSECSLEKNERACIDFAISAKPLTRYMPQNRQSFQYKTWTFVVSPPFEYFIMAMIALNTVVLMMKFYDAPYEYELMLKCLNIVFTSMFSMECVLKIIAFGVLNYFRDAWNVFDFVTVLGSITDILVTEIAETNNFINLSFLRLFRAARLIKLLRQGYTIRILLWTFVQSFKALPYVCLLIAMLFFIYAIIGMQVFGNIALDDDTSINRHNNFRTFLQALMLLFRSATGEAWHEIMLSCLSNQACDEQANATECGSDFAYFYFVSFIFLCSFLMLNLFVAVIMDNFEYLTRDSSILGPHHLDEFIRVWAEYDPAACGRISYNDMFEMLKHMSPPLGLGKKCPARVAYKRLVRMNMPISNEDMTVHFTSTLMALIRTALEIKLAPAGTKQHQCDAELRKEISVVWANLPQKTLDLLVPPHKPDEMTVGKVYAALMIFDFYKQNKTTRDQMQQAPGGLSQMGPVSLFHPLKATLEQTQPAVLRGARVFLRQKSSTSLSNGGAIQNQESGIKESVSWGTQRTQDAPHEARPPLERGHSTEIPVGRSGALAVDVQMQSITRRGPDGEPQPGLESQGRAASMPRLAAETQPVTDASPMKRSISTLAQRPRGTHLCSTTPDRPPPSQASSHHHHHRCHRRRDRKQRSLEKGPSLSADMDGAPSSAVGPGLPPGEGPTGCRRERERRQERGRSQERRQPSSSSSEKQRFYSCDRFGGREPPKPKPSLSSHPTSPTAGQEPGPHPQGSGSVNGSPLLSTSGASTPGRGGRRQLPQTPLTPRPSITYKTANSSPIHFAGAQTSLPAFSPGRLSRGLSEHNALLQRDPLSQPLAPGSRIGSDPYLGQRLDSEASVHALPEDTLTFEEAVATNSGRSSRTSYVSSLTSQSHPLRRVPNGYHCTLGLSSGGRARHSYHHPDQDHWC
# [9] = tested on: K+ and Na+ currents, and L, P/Q and T-type calcium currents; conditions: cited from earlier work
# R-type calcium current = molecular target: T1, R-type calcium current (Rattus norvegicus, UniProt Q07652); conditions: at 40 nM concentration; cited from earlier work
# T1 construct: R-type calcium current in the neurohypophysial nerve endings at 40 nM concentration; host or cells: neurohypophysial nerve endings
# T1 sequence (Q07652 whole entry): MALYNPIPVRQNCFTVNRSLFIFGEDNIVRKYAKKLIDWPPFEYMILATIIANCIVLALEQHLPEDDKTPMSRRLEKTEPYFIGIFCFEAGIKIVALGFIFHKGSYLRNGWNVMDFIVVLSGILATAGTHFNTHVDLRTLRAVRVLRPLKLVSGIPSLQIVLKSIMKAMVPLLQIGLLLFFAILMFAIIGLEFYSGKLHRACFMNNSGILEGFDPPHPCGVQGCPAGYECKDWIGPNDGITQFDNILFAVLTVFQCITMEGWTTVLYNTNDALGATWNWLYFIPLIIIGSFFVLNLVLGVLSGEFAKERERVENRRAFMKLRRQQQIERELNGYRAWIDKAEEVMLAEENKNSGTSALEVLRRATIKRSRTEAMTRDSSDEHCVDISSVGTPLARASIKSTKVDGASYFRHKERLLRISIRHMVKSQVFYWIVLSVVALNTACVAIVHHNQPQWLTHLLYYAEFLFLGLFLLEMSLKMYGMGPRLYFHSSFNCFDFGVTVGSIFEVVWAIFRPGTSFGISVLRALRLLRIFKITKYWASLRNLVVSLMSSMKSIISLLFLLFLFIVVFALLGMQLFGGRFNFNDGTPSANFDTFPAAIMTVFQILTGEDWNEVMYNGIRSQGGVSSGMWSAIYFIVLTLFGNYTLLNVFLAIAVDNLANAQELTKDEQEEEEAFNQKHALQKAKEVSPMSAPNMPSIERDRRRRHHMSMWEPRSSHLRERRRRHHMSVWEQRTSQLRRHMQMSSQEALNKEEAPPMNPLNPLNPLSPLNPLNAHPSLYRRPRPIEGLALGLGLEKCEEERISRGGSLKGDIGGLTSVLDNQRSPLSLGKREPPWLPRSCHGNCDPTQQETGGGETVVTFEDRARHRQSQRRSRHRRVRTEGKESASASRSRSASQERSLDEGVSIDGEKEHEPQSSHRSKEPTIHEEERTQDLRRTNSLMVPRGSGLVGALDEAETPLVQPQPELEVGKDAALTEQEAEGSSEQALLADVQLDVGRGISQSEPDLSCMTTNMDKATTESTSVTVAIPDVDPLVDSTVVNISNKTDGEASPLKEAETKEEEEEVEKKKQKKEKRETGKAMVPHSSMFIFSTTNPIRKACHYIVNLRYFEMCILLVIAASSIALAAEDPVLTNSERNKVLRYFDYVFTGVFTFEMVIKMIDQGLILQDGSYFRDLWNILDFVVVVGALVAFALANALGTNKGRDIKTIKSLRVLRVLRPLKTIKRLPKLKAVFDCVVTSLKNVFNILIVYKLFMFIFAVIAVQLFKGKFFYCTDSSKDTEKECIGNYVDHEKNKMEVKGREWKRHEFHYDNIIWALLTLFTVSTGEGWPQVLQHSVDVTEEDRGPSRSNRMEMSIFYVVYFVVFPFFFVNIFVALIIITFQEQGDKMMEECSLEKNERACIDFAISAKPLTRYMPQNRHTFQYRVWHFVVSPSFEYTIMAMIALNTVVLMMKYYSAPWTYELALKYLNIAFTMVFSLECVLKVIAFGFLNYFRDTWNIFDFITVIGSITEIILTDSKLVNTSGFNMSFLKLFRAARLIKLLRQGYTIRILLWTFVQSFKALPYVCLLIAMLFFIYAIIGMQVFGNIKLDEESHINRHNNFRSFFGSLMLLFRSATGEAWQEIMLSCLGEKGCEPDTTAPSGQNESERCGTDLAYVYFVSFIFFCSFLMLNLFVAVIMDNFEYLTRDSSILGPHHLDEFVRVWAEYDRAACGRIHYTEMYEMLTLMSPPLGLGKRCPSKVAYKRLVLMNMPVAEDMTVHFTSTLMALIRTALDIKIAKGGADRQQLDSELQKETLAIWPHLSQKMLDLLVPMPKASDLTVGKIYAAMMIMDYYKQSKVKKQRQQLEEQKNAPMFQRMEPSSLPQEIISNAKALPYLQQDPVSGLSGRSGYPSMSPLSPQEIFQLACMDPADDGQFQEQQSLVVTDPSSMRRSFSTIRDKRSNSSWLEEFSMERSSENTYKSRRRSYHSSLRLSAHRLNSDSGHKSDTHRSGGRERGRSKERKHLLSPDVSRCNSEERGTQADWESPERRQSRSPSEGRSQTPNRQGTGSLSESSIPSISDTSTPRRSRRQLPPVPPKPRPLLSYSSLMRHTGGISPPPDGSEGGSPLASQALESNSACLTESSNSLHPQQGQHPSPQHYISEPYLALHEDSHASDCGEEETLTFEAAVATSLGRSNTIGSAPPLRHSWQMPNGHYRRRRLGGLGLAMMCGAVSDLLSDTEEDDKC
# [10] = placebo microparticles + oral nimodipine 5.2 mg/kg daily for 21 days, n = 8
compound,measurement,setting,value
"COCCOC(=O)C1=C(C)NC(C)=C(C(=O)OC(C)C)C1c1cccc([N+](=O)[O-])c1 (centres unmarked) [nimodipine, Isopropyl 2-methoxyethyl 1,4-dihydro-2,6-dimethyl-4-(m-nitrophenyl)-3,5-pyridinedicarboxylate]",dogs with microthrombi,[1],one
same,release of nimodipine over time in vivo (plasma),[2],Sustained release of nimodipine over time was observed
same,concentration of nimodipine in CSF,[3],1.56 ± 1.17 ng/mL
same,"% change compared to day 1, Day 8",[4]; [10],(−27.9 ± 3.0) %
same,"% change compared to day 1, Day 15",[4]; [10],(−11.7 ± 4.5) %
same,"Angiographic diameter of basilar artery (mm), Day 8",[4]; [10],1.08 ± 0.12 mm
same,"Angiographic diameter of basilar artery (mm), Day 15",[4]; [10],1.32 ± 0.17 mm
same,"Angiographic diameter of basilar artery (mm), Day 1","[4]; placebo microparticles + oral nimodipine 5.2 mg/kg daily for 21 days, n = 8, baseline",1.51 ± 0.13 mm
same,basilar artery diameter 8 and 15 days after SAH versus day 1,"[4]; placebo microparticles with oral nimodipine, ANOVA P=0.001",significant reductions in basilar artery diameter
same,bioavailability,[5],about 28%
COc1ccccc1Oc1c(NS(=O)(=O)c2ccc(C)cn2)nc(-c2ccnc(-c3nnn[nH]3)c2)nc1OCCO [clazosentan],patients with primary end point,"[6]; 5 mg/h, 47/194",24%
same,"odds ratio, primary end point","[6]; 5 mg/h, 95% CI 0.479-1.289, P=0.340",0.786
same,"odds ratio, poor outcome","[6]; 5 mg/h, 95% CI 0.546-1.544, P=0.748",0.918
same,patients with poor outcome (extended Glasgow Outcome Scale score <1=4),[6]; 5 mg/h,25%
same,patients with primary end point,"[6]; 15 mg/h, 28/188",15%
same,"odds ratio, primary end point","[6]; 15 mg/h, 95% CI 0.275-0.818, P=0.007",0.474
same,"odds ratio, poor outcome","[6]; 15 mg/h, 95% CI 0.802-2.227, P=0.266",1.337
same,post aneurysmal SAH vasospasm-related morbidity/all-cause mortality,[6]; 15 mg/h,significantly reduced
same,patients with poor outcome (extended Glasgow Outcome Scale score <1=4),[6]; 15 mg/h,28%
same,adverse events versus placebo,[6]; 5 or 15 mg/h,"Pulmonary complications, anemia, and hypotension were more common"
same,outcome (extended Glasgow Outcome Scale),[6]; 5 or 15 mg/h,neither dose improved outcome
same,"patients meeting primary composite endpoint (week 6): all-cause mortality, vasospasm-related new cerebral infarcts, delayed ischemic neurological deficit, rescue therapy","[7]; 5 mg/h up to 14 days, 161 of 764, placebo 25%",21%
same,"relative risk reduction, primary endpoint","[7]; 5 mg/h, 95% CI −4 to 33, p=0.10",17%
same,patients with poor functional outcome (GOSE score <1=4),"[7]; 5 mg/h, 224 patients, placebo 25%",29%
same,Mortality (week 12),"[7]; 5 mg/h, both groups",6%
same,adverse events versus placebo,[7]; 5 mg/h,"Lung complications, anaemia, and hypotension were more common"
same,effect on mortality and vasospasm-related morbidity or functional outcome,[7]; 5 mg/h,no significant effect
same,"relative risk reduction, poor functional outcome","[7]; 5 mg/h, −45 to 4, p=0.10",−18%
same,incidence of angiographic vasospasm after aneurysmal SAH,[8],significantly reduced the incidence of angiographic vasospasm
SNX-482,block of N-type calcium current,N-type calcium current,30-50%
same,effect on other currents,[9],no effect is observed
same,block of R-type calcium current,R-type calcium current,blocks
